From the SangsterLogP compilation

Structure (SMILES) | logP
Clc1ccc(C(Cn2ccnc2)OCC2CCCCC2)c(Cl)c1 (stereo unspecified) | 6.5
C=CCCOC(Cn1ccnc1)c1ccc(Cl)cc1Cl (stereo unspecified) | 4.33
CCC(CC)COC(Cn1ccnc1)c1ccc(Cl)cc1Cl (stereo unspecified) | 6.24
CC(C)=CCOC(Cn1ccnc1)c1ccc(Cl)cc1Cl (stereo unspecified) | 5.04
C=CCCCOC(Cn1ccnc1)c1ccc(Cl)cc1Cl (stereo unspecified) | 4.94
C=C(C)COC(Cn1ccnc1)c1ccc(Cl)cc1Cl (stereo unspecified) | 4.26
CCCCC(CC)COC(Cn1ccnc1)c1ccc(Cl)cc1Cl (stereo unspecified) | 6.89

Further lines, results first:

logP | Structure (SMILES)
4.9 | CCCC(C)OC(Cn1ccnc1)c1ccc(Cl)cc1Cl (stereo unspecified)
5.71 | CC(C)CCOC(Cn1ccnc1)c1ccc(Cl)cc1Cl (stereo unspecified)
4.5 | CCC(C)OC(Cn1ccnc1)c1ccc(Cl)cc1Cl (stereo unspecified)
5.13 | CCC(CC)OC(Cn1ccnc1)c1ccc(Cl)cc1Cl (stereo unspecified)
